Measurements as given in patent US5219867A, “Platelet aggregation inhibitory agents” (priority 1992, dated 1993).
“Also recorded” adds a separate entry of the source. Counter-ions that a name gives are not always drawn. Like-named read-outs stand apart in the source and are kept apart here.

Columns and labels:
human blood platelets = assay: In vitro inhibition of ADP-induced human platelet aggregation (platelet-rich plasma, aggregometer); format: cell-based; conditions: for IC50: Homo sapiens, Platelet; for Potency in inhibiting aggregation relative to rac-I: in vitro platelet aggregation
Description: Procedure for Determining In Vitro Platelet Aggregation-Inhibitory Activity. Adenosine diphosphate (ADP) was used to induce platelet aggregation and was utilized as the sodium salt. A 10 mM stock solution was prepared fresh before each use in modified Tyrode's buffer and working dilutions were prepared with modified Tyrode's buffer immediately prior to use. The buffer contained NaCl (137.00 mM), KCl (2.70 mM), NaHCO3 (11.90 mM), NaH2 PO4 H2 O (0.36 mM) and glucose (5.60 mM) in redistilled water. Adjustment to pH 7.4 was effected by addition of 1N HCl.
The blood was transferred into plastic centrifuge tubes containing 3.2% sodium citrate (blood/citrate ratio 8:1) and centrifuged at 120Xg for 15 minutes at 23° C., yielding platelet-rich plasma (PRP); platelet-poor-plasma (PPP) was obtained by centrifugation of citrated whole blood at 1,100Xg for 15 min at 23° C. The platelet count of PRP was determined and adjusted to a final count of 300,000 platelet per mm^3 by dilution with autologous PPP. […] The plasma so obtained was transferred using a 1.0 ml Centaur pipette into a 50 ml polyethylene centrifuge tube. In order to maintain plasma pH in the appropriate range, the air in the tubes are displaced gently (2 minutes) with a 5% (CO2 -95% air (v/v) mixture and the tube capped. The plasma was maintained at 37° C. in a water bath until used in the aggregation experiments.
Assays of platelet aggregation were performed at least in duplicate, using plasma acquired from different donors, employing a method developed by Quintana, et al. (Quintana, et al., Relationships Between the Chemical Constitution of Carbamoylpiperidines and Related Compounds, and Their Inhibition of ADP-Induced Human Blood Platelet Aggregation, Thromb. Res. Vol. 22, Pages 665-680, 1981); Quintana, et al., Effects of Ethanol and of Other Factors on ADP-Induced Aggregation of Human Blood Platelets in Vitro, Thromb. Res., Vol. 20, Pages 405-415, 1980) (cf. Born, Nature, Vol. 194, Pages 927-929, 1962) and Mustard, et al., J. Lab. Clin. Med., Vol. 64, Pages 548-559, 1964).
Initially, in each experiment, 0.45-ml aliquots of PRP were placed in siliconized cuvettes and stirred (1,100 rpm) in the aggregometer at 37° C. to ascertain the absence of spontaneous aggregation. Appropriate ADP solutions (50 μl) were subsequently injected using a Hamilton microliter syringe to determine the minimal concentration eliciting maximal biphasic aggregation. […] In each case, the concentration of ADP so determined was used in eliciting aggregation throughout each specific set of aggregometric evaluations.
0.5 μl of a solution of the evaluant compound in redistilled 95% ethanol was injected into a stirred ([…]) 0.4-ml aliquot of plasma in a siliconized cuvette in the aggregometer-well (37° C). After 15 seconds, the cuvette was transferred to an incubator (also at 37° C.) and the contents held at this temperature, without stirring, until 2 minutes postinjection. The cuvette was then returned to the aggregometer-well, a base-line being recorded for 2 minutes to detect any spontaneous aggregation. At exactly 4 minutes after injection of the evaluant solution, 50 μl of the appropriate ADP solution was injected and aggregation recorded for 5.5 minutes. Evaluants were studied at least 4 different concentrations. Control experiments (ethanol in a final concentration of 0.095% v/v) were performed in conditions parallel with those involving the respective evaluants, and were initiated either 1 minute prior to or 1 minute after the start of experiments employing the test compounds. This permitted injections to be made precisely at the specified times.

human platelets = assay: Inhibition of collagen-induced aggregation, washed aequorin-loaded platelet suspension; format: cell-based; conditions: for IC50: Homo sapiens, Platelet, collagen-induced aggregation (n = 4), HEPES-buffered saline, 1.0 mM CaCl2, read-out: Ia50 ± S.E. Collagen-induced
Description: Procedure for Cytosolic Ionized Calcium Determination. The basic procedure of Yamaguchi, et al. (Thromb. Res., Vol. 44, Pages 165-174, 1986) was followed. Blood was collected from six blood donors, aged 24-38 years, who had fasted overnight and affirmed abstinence from alcohol, caffeine and medications of any kind for a period of at least one week prior to donation. […] Platelets were collected (800 g, 15 min), resuspended in and washed (800 g, 15 min) with HEPES-buffered saline (140 mM NaCl, 2.7 mM KCl, 0.1% bovine albumin, 0.5% glucose, 3.8 mM HEPES, pH 7.6) with EGTA (5 mM) and PGE1 (1 μM). The platelet pellet was resuspended in 90 μl of the same buffer and added to 20μl of 3 mg/ml aequorin solution in a 1.5 ml Eppendorf centrifuge tube. Six 1 μl aliquots of DMSO were added at 90 second intervals with brief, gentle mixing on a Vortex mixer and the platelet suspension was incubated 2 minutes after the last addition. One ml of HEPES-buffered saline was added, gently mixed, and again incubated for 2 minutes. The platelets were pelleted (1000 g, 30 sec), resuspended in HEPES-buffered saline to which was added either 1 mM Mg Cl2, (calcium-free buffer) or 1 mM Mg Cl2 and 1 mM Ca Cl2 (calcium buffer), depending on the experiment. The platelet count was adjusted to 3-4×10^5 platelets/μl.
The Platelet Ionized Calcium Aggregometer (Chrono-Log Corp., Ltd., Havertown, Pa.) was used to obtain simultaneous aggregation and luminescence data under the following experimental conditions: (1) platelet suspension, 1 ml, was equilibrated at 37° C. with stirring at 1100 rpm; (2) 100 μl (1.2 μg) of fibrinogen was added; (3) the vehicle (95% ethanol) or the test compound in vehicle was added; (4) when needed, 10 μl of the desired concentration of EGTA was added 30 seconds prior to addition of the agonist; then (5) the agonist (Collagen, 5 μg or 20 μg) was added and the time noted. At one minute after addition of the agonist in Channel 1, a platelet sample containing fibrinogen in Channel 2 was lysed with 10 μl of a 1:1 solution of Triton X-100 (final concentration 0.005%) 10 mM CaCl2 (final concentration 0.5 mM). Treated and control […] data were corrected for time dependent decay of fluorescence using data from the untreated lysed controls.
Normally 4 compound-treated samples (at 4 different concentrations) interspersed with 3 control samples were evaluated at 4.5 minute intervals starting 18-23 minutes after the DMSO treatment. The Ia50 values were calculated as described earlier. The compound concentrations effecting 50% inhibition (Ica50) of collagen-induced cytosolic ionized calcium values was determined by linear regression analysis.
Compounds I-rac, (+)-I,(IC) and (-)-I(IA) were evaluated. The Ia50 (collagen-induced aggregation) and Ica50 (compound concentration required to inhibit by 50% the collagen-induced rise in cytosolic ionized calcium)values determined with platelet suspensions in HEPES-buffered saline containing 1.0 mM CaCl2 were as follows: […]

Work on `CCN(CC)C(=O)C1CCCN(Cc2ccc(CN3CCCC(C(=O)N(CC)CC)C3)cc2)C1` (racemic) [Compound I, α-α'-Bis[3-(N,N-diethyl-carbamoyl)piperidino]-p-xylene dihydrobromide] yielded an IC50 (human blood platelets; read-out: IC50 (compound concentration which inhibits ADP-induced platelet aggregation by 50%) ± S.E., racemic compounds, ADP-induced) of 44.5 ± 12.7 µM, an IC50 (human blood platelets; read-out: Ia50 (compound concentrations affecting 50% inhibition of aggregation) ± S.E., Table II, ADP-induced, n = 5 for (0)I and 6 for all others) of 44.5 ± 127 µM and an IC50 (human blood platelets; read-out: Ia50 ± S.E. ADP-Induced, table 3, ADP-induced (n = 5-6)) of 44.5 µM. For the same compound, the IC50 (human platelets) was 20.2 µM.

In the case of `CCN(CC)C(=O)C1CCCN(Cc2ccc(CN3CCCC(C(=O)N(CC)CC)C3)cc2)C1` (single isomer, unassigned) [IC, α-α'-Bis(3-N,N-diethylcarbamoyl)piperidino]-p-xylene dihydrobromide], the “Potency in inhibiting aggregation relative to (-)-I (antipode)” value (human blood platelets; ADP as agonist, in vitro) is reported as 15 times, the IC50 (human blood platelets; Table II, ADP-induced, n = 5 for (0)I and 6 for all others, read-out: Ia50 (compound concentrations affecting 50% inhibition of aggregation) ± S.E.) is reported as 15.3 ± 3.9 µM and the IC50 (human blood platelets; table 3, ADP-induced (n = 5-6), read-out: Ia50 ± S.E. ADP-Induced) is reported as 15.3 ± 3.9 µM. The “Activity as a platelet aggregation inhibitor, in words” value (human blood platelets; as compared to racemic (I) / other stereoisomers, listed as (+) enantiomer, dihydrobromide) was “unexepectedly superior activity; also recorded: possesses most of the therapeutic activity”, the “Potency in inhibiting aggregation relative to rac-I” value (human blood platelets; dihydrobromide) was “three times more potent” and the “Potency in inhibiting aggregation relative to rac-I” value (human blood platelets; listed as (+) enantiomer of Compound I, dihydrobromide) was “two to three times more potent”. The IC50 (human platelets) was 10.7 ± 2.7 µM and the “Potency in inhibiting aggregation relative to (-)-I” value (human platelets; collagen as agonist, in vitro) was 18 times.
